Test results from US6921824B1, “Ruthenium dimeric complexes suitable as antimetastatic and antineoplastic agents” (priority 1999, dated 2005).

Assay: Solubility in water (remark in preparation)
Type: physicochemical

Solubility in water: not very soluble in water
Substance: [K]2[trans-RuCl4(Me2SO)]2(μ-pyz) [Example 6]
